Laboratory results published in patent US20240165116A1, “ROCK2 INHIBITOR FOR THE TREATMENT OF VIRAL INFECTION” (Graviton Bioscience B.V., priority 2021, published 2024).
Entries after “also recorded” stand apart in the source; their conditions may differ.

What was measured:
[1] = tested on: SARS-CoV-2 (2019-nCoV/USA-WA1/2020 strain); experiment: In vitro SARS-CoV-2 prevention model: viral RNA in supernatant by qPCR; type: cell-based; conditions: Severe acute respiratory syndrome coronavirus 2; Calu-3 cells treated 2 h at 37° C., challenged with 10^2 PFU SARS-CoV-2 for 6 h, qPCR of supernatant at 48 h; calculated from best-fit values; read-out: EC50 (SARS-CoV-2 in supernatant, classical dose-response curve)
Description: FIG. 2. Efficacy: SARS-CoV-2 CPN in Supernatant. Immortalized human airway epithelial cells (Calu-3) were treated with the listed concentrations of the Formula XII compound for 2 h at 37° C. followed by challenge with SARS-CoV-2 for 6 h. After washing, the cells were maintained for 48 hours and viral infection was analyzed by qPCR of the supernatant. Each data point represents the mean of three replicates.
FIG. 3. Efficacy: Classical Dose-Response Curve. This figure provides the dose-response curve for the experiment described in Example 1 and FIG. 2.
A 50 mM stock solution of (6-(4-((4-(1H-pyrazol-4-yl)phenyl)amino)pyrimidin-2-yl)-1-methyl-1H-indol-2-yl)(3,3-difluoroazetidin-1-yl)methanone (Formula XII) in DMSO was diluted using PBS to Formula XII concentrations of 100 μM, 10 μM, 1 μM, 0.3 μM, 0.1 μM, and 0.03 μM. About 30,000 immortalized human airway epithelial cells (Calu-3) were grown to about 100,000 cells per well in a 96-well format. […]
Viral infection was analyzed by qPCR (qRT-PCR). […] Viral or host RNA levels in the supernatant were determined using the TaqPath™ 1-Step RT-qPCR Master Mix (Thermo Fisher) on CFX Connect Real-Time System (Bio-Rad) instrument using the following primers: Fwd: 5′-[…]-3; Rev: 5′-[…]-3′).
Datasets were analyzed and plotted in GraphPad Prism (version 9.0.2). […]

[2] = tested on: SARS-CoV-2 (2019-nCoV/USA-WA1/2020 strain); experiment: Viral load in lung lysates of SARS-CoV-2 challenged human ACE2 transgenic mice; type: in vivo; conditions: 300 mg/kg daily via oral gavage in 0.5% CMC-Na; initial viral loads 100, 1000, 10,000 pfu; compared with vehicle and Remdesivir (25 mg/kg subcutaneously)
Description: FIGS. 6A, 6B, and 6C. Efficacy: Viral Load in Lung Lysates. […] Shown are viral copies/mg of lungs for initial viral loads of 100 pfu SARS-CoV2 (FIG. 6A), 1000 pfu SARS-CoV2 (FIG. 6B), and 10,000 pfu SARS-CoV2 (FIG. 6C). Groups from left to right: Vehicle, Formula XII (300 mg/kg), Remdesivir (RDV). Inserts: Formula XII (300 mg/kg) (left), Remdesivir (RDV) (right).
Human ACE2 transgenic mice from Jackson Laboratories (n=5 per group) were challenged at t=0 with SARS-CoV-2 at an initial viral load of 100 PFU, 1,000, or 10,000 pfu of 2019-nCoV/USA-WA1/2020 strain. This strain was isolated from an oropharyngeal swab from a patient with a respiratory illness who developed the clinical disease (COVID-19) in January 2020 in Washington, US (BEI Resources, NR-52281). […] The infected mice were dosed daily via oral gavage with (1) 0.5% sodium carboxymethyl cellulose (CMC-Na) (negative control), (2) 300 mg/kg Formula XII in 0.5% CMC-Na (test group), or (3) Remdesivir (RDV). RDV, an anti-viral reagent that acts as a nucleoside analog and inhibits the RNA-dependent RNA polymerase (RdRp) of coronaviruses including SARS-CoV-2, was used a positive control. […] The animals were monitored daily. […] The viral load in the lung was determined by qPCR detecting viral RNA in lung lysates.

`Cn1c(C(=O)N2CC(F)(F)C2)cc2ccc(-c3nccc(Nc4ccc(-c5cn[nH]c5)cc4)n3)cc21` [Formula XII, (6-(4-((4-(1H-pyrazol-4-yl)phenyl)amino)pyrimidin-2-yl)-1-methyl-1H-indol-2-yl)(3,3-difluoroazetidin-1-yl)methanone] was tested, and the EC50 [1] was 124 nM and the “Viral load in the lung (viral copies/mg of lungs, qPCR of lung lysates)” value [2] was “significantly reduced viral load as compared to both the negative as well as the positive control; also recorded: reduces the spread of SARS-CoV2 in the lungs of mice in vivo”.
